According to PMC5503534, “Stable aneuploid tumors cells are more sensitive to TTK inhibition than chromosomally unstable cell lines” (Oncotarget, 2017):
Like-named read-outs stand apart in the source and are kept apart here.

How the values were obtained:
full-length Aurora B = molecular target: T1, full-length Aurora B (Homo sapiens, UniProt Q96GD4); assay: Surface plasmon resonance binding kinetics, Aurora B; conditions: SPR, geometric average
T1 construct: to the kinase domain of TTK and full-length Aurora B; purchased Carna Biosciences, Inc., Kobe, Japan; host or cells: Sf9 insect cells
From the text: (§1) Originally, the compound was identified in a phenotypic screen for molecules that can induce stem-cell like phenotypes. Later this property was attributed to its ability to inhibit the mitotic kinase Aurora B [39].

[1] = system: HCT 116 colon carcinoma cell line; assay: Cell proliferation assay (ATPlite), HCT 116; format: cell-based, human; conditions: for Eff. (%): HCT 116, five days, maximum inhibitory effect, average of three experiments
Procedure: (§2) Cell proliferation assays were carried out as described using ATPlite 1step™ (Perkin Elmer, Groningen, The Netherlands). Exposure time was 72 or 120 hours as indicated in the Legends to the Figures. Percentage growth was calculated, relative to the growth of unexposed cells, and relative IC50s were fitted using a four-parameter logistics curve (XLfit 5.3, IDBS). For Figure 4A and 7 dose response curves were redrawn in Prism. To compare the inhibitory potency of compounds in proliferation assays with HCT 116 parental and tetraploid clones, pIC50 (−^10logIC50) values were compared in three independent experiments. A two-tailed Student's t-test was performed to determine whether differences in sensitivity (ΔpIC50) were statistically significant. Caspase 3/7 activity of cancer cells was measured using Caspase-Glo 3/7 Assay kit (cat no. G8093, Promega, Madison USA). Viability of T-ALL cell samples was determined using ATPlite and exposure of 72 hours as described previously.

[2] = system: post-tetraploid HPT1 cells; assay: Cell proliferation assay, post-tetraploid HPT1; format: cell-based, human; conditions: HPT1, five days; for Efficacy (%): average of three experiments; for IC50: geometric average of three experiments
Procedure: (§3) Cancer cell lines and hTERT-RPE1 retinal pigment epithelial cells were purchased from the American Type Culture Collection (ATCC) (Manassas, VA, U.S.A.) from 2011 to 2014 [41] and cultured in ATCC-recommended media. All experiments were carried out within nine passages of the original vials from ATCC who authenticated the cancer cell lines by short tandem repeat analysis. We verified the mutant status of seven frequently mutated cancer genes (i.e., BRAF, CDKN2A, CTNNB1, EGFR, KRAS, PIK3CA and TP53) by full exome or targeted sequencing. Sequencing results were compared to COSMIC version 75 of the Genomics of Drug Sensitivity in Cancer data base and provided additional authentication of the identity of the cell lines. The isolation and characterization of post-tetraploid clones from HCT 116 has been described previously. The mutation status of the CDKN2A, CTNNB1, KRAS and PIK3CA genes were confirmed by sequence analysis in both the HCT 116 parental cell line and post-tetraploid clones. All experiments were carried out within nine passages of the original cell stocks that were transferred from the Max Planck Institute of Biochemistry (Martinsried, Germany) to Netherlands Translational Research Center.
as §2

[3] = system: post-tetraploid HPT2 cells; assay: Cell proliferation assay, post-tetraploid HPT2; format: cell-based, human; conditions: HPT2, five days; for Efficacy (%): average of three experiments; for IC50: geometric average of three experiments
Procedure: as §3, §2

[4] = system: post-tetraploid HPT4 cells; assay: Cell proliferation assay, post-tetraploid HPT4; format: cell-based, human; conditions: HPT4, five days; for Efficacy (%): average of three experiments; for IC50: geometric average of three experiments
Procedure: as §3, §2

[5] = system: HCT 116 vs HPT1, -2 and -4; assay: Drug sensitivity analysis, HCT116 diploid versus tetraploids; format: cell-based, human; conditions: for Δeff. (%) / Phenotype (potency): HCT 116 vs HPT1, -2 and -4; for Phenotype (efficacy): HCT 116 vs HPT1, -2 and -4, based on % effect; for Phenotype (potency): 'resistant' indicates that tetraploids are resistant; for ΔpIC50: average log shift in sensitivity between parental and tetraploids
Procedure: as §2

[6] = system: HCT 116 colon carcinoma cell line; conditions: three day cell proliferation assay; cited from earlier work
[7] = system: LoVo colorectal adenocarcinoma cell line; conditions: three day cell proliferation assay; cited from earlier work
[8] = system: A-172 glioblastoma cell line; conditions: three day cell proliferation assay; cited from earlier work
[9] = system: DoTc2 4510 cervix carcinoma cell line; conditions: three day cell proliferation assay; cited from earlier work
[10] = system: MG-63 osteosarcoma cell line; conditions: three day cell proliferation assay; cited from earlier work
[11] = system: OVCAR-3 ovary adenocarcinoma cell line; conditions: three day cell proliferation assay; cited from earlier work
[12] = system: 66 cancer cell lines (44 cell lines); parameters: method as in earlier work; conditions: cited from earlier work
[13] = mouse, in vivo; cited from earlier work
TTK kinase domain = molecular target: T2, TTK kinase domain (Homo sapiens, UniProt P33981); assay: Surface plasmon resonance binding kinetics, TTK; conditions: SPR, geometric average
T2 construct: using bacterially expressed TTK kinase domain and Sf9 insect cell-expressed Aurora B; purchased Carna Biosciences, Inc., Kobe, Japan
T2 sequence (P33981 525-791 limits assumed): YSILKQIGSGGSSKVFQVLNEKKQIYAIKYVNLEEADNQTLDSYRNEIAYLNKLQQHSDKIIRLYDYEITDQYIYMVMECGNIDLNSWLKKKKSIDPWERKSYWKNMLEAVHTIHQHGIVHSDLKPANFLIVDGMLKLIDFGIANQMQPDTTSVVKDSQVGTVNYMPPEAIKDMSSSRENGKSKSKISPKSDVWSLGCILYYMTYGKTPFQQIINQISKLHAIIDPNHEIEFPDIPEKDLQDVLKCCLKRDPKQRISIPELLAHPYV
From the text: as §1

[14] = system: A-172 glioblastoma cell line; assay: Cell proliferation assay (ATPlite), A-172; format: cell-based, human; conditions: Homo sapiens, 120 h, 5 day proliferation assay
Procedure: as §2

[15] = system: DoTc2 4510 cervix carcinoma cell line; assay: Cell proliferation assay (ATPlite), DoTc2 4510; format: cell-based, human; conditions: Homo sapiens, 120 h, 5 day proliferation assay
Procedure: as §2

[16] = system: MG-63 osteosarcoma cell line; assay: Cell proliferation assay (ATPlite), MG-63; format: cell-based, human; conditions: Homo sapiens, 120 h, 5 day proliferation assay
Procedure: as §2

[17] = system: OVCAR-3 ovary adenocarcinoma cell line; assay: Cell proliferation assay (ATPlite), OVCAR-3; format: cell-based, human; conditions: Homo sapiens, 120 h, 5 day proliferation assay
Procedure: as §2

[18] = system: patient-derived colorectal carcinoma organoids; assay: Organoids drug sensitivity and viability assay; format: cell-based, human; conditions: Homo sapiens
Procedure: The establishment and characterization of the human colon cancer organoids has been described. The organoids were cultured in drops of Geltrex LDEV-Free Reduced Growth Factor Basement Membrane Matrix (Gibco, cat no. A1413202) in DMEM/F12 medium (Thermo), supplemented with 1% (v/v) penicillin/streptomycin (Gibco), 1% Hepes buffer, pH7.5, 1% L-glutamine (Gibco), 1 μg/mL R-spondin (Sigma), 100 ng/mL Noggin (Peprotech), B27 vitamin A-free (Invitrogen, cat no. 12587010), 1 mM n-acetyl cysteine (Sigma), 10 mM nicotinamide (Sigma), 50 ng/mL EGF (BD Biosciences), 500 nM A83-01 (Tocris), 10 μM SB202190 (Sigma), 10 μM Y-27632 (Sigma) and 10 nM Prostaglandin E2 (Cayman). Medium was refreshed every four days and organoids were splitted by treatment with TryPLE Express (Gibco, cat. no. 12604013).
Organoids were dissociated by TryPLE Express treatment and filtered using a 40 μm nylon cell strainer (Falcon). The organoids were re-suspended in Geltrex at a density of 250,000 cells/mL and seeded in the wells of 96-well plates (Corning, cat no. 3903) at 10 μl per well. Compounds were added four days after plating and 72 hours later viability was determined using Cell-Titer Glo 3D Cell Viability Assay (Promega, Madison USA). Experiments were performed in three biological replicates and technical triplicates were averaged per experiment.

T1 sequence (Q96GD4 whole entry, the tested form may be a part): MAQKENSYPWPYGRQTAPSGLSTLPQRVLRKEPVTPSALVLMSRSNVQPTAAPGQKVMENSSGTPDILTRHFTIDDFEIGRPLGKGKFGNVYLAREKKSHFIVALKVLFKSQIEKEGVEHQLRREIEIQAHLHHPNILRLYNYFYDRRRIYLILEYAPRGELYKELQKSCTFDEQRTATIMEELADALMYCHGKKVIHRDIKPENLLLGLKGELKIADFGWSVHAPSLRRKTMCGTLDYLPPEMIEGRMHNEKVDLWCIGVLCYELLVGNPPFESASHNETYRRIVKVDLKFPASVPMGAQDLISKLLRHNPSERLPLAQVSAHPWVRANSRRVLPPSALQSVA

| kd (full-length Aurora B) [s⁻¹] | Structure (SMILES) | Eff. (%) [1] [%] | Efficacy (%) [2] [%] | Efficacy (%) [3] [%] | Efficacy (%) [4] [%] | Δeff. (%) [5] [%] | Phenotype (efficacy) [5] | Phenotype (potency) [5] | ΔpIC50 [5] | IC50 [6] [nM] | IC50 [7] [nM] | IC50 [8] [nM] | IC50 [9] [nM] | IC50 [10] [nM] | IC50 [11] [nM] | further results |
| --- | --- | --- | --- | --- | --- | --- | --- | --- | --- | --- | --- | --- | --- | --- | --- | --- |
| 0.291 | Cc1cc(N2CCOCC2)ccc1Nc1nc(NC2CCCCC2)c2[nH]cnc2n1 [MPI-047605] | 72 | 52 | 46 | 51 | −22 | resistant | sensitive | −0.07 | 234 | 220 | 198 | 8390 | 899 | 7330 | ka (full-length Aurora B): 9550 M⁻¹ s⁻¹; IC50 ([1]; HCT 116 near-diploid, five days, geometric average of three experiments (Suppl. Table 2A)): 233 nM; IC50 [2]: 208 nM; IC50 [3]: 199 nM; IC50 [4]: 191 nM; IC50 ([12]; 3 days, geometric average in 44 cell lines): 448 nM |
| – | CC(=O)O[C@@]12CO[C@@H]1C[C@H](O)[C@@]1(C)C(=O)[C@H](O)C3=C(C)[C@@H](OC(=O)[C@H](O)[C@@H](NC(=O)OC(C)(C)C)c4ccccc4)C[C@@](O)([C@@H](OC(=O)c4ccccc4)[C@H]21)C3(C)C [docetaxel] | – | – | – | – | – | – | – | – | 2 | 8 | 3 | 3 | 1 | 4 | effect on bone marrow or blood cell count (hematological toxicity) [13]: hematological toxicity was seen |
| 0.00484 | c1nc2nc(Nc3ccc(N4CCOCC4)cc3)nc(NC3CCCCC3)c2[nH]1 [reversine] | 77 | 58 | 44 | 33 | −32 | resistant | sensitive | −0.08 | – | – | – | – | – | – | kd (TTK kinase domain): 8.86e-05 s⁻¹; IC50 ([1]; Homo sapiens, HCT-116, 120 h, 5 day proliferation assay, HCT 116 (Suppl. Table 1)): 175 nM; IC50 ([1]; Homo sapiens, HCT-116, 120 h, HCT 116 near-diploid, five days, geometric average of three experiments (Suppl. Table 2A)): 242 nM; IC50 [14]: 158 nM; IC50 [15]: 416 nM; IC50 [16]: 434 nM; IC50 [17]: 441 nM; IC50 ([2]; Homo sapiens, 120 h): 208 nM; IC50 ([3]; Homo sapiens, 120 h): 253 nM; IC50 ([4]; Homo sapiens, 120 h): 159 nM; IC50 ([18]; 72 h, organoid p14, three days, read-out: IC50): 493 nM; IC50 ([18]; 72 h, organoid p14, three days, read-out: pIC50 (converted)): 468 nM; IC50 ([18]; 72 h, organoid p18, three days, read-out: IC50): 285 nM; IC50 ([18]; 72 h, organoid p18, three days, read-out: pIC50 (converted)): 269 nM; IC50 ([18]; 72 h, organoid p28, three days, read-out: IC50): 757 nM; IC50 ([18]; 72 h, organoid p28, three days, read-out: pIC50 (converted)): 646 nM; IC50 ([18]; All organoids, geometric average, read-out: pIC50 (converted)): 437 nM; IC50 ([12]; 5 days, geometric average in 66 cancer cell lines): 239 nM |
